Data taken from ChEMBL document CHEMBL1201862, “PubChem BioAssay data set” (2004).
Calls of active or inactive are those of the source.

Assays:
[1] = inhibitors of Bluetongue virus cytopathic effect, confirmation, arbovirus, BSR cells (AID 1250); assay type: functional;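 note: protection from viral cytopathic effect measured as cell viability by ATP luminescence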
SUMO-activating enzyme [2] = molecular target: T1, SUMO-activating enzyme (Homo sapiens, UniProt Q9UBT2); experiment: SUMOylation inhibitor hit validation, confirmation, SUMOylation inhibitor project, biochemical, AlphaScreen (AID 2018); assay type: functional
T1 sequence (Q9UBE0 whole entry): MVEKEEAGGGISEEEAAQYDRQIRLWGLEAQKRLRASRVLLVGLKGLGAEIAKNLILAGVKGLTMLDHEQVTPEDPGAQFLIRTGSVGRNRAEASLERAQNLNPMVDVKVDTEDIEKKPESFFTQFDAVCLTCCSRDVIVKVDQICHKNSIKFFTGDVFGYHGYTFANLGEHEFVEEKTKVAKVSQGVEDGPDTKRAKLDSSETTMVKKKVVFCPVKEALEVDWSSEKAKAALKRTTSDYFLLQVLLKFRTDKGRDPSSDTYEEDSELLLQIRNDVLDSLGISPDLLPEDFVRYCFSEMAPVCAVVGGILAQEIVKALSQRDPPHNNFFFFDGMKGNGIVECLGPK
T1 sequence (Q9UBT2 whole entry): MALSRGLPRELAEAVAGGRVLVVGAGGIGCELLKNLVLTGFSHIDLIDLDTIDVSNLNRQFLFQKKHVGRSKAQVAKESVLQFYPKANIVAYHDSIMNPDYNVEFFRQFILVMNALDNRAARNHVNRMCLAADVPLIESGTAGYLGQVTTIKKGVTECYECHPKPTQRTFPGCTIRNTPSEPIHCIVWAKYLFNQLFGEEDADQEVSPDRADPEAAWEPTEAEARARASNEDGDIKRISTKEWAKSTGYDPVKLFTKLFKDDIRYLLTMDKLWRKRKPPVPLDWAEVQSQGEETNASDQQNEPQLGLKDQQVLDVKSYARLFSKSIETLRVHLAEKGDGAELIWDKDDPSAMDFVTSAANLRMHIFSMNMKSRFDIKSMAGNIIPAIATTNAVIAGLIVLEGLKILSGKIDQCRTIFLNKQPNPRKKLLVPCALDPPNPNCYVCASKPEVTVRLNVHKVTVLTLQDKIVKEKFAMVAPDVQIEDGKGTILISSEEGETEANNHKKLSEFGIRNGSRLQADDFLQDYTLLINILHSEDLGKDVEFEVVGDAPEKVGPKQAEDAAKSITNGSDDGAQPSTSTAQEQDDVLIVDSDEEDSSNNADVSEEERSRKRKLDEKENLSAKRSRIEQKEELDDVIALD

SUMO-activating enzyme [3] = molecular target: T1, SUMO-activating enzyme; experiment: inhibitors of in vitro SUMOylation cascade, primary screen, biochemical, HTRF, uHTS (AID 2006); assay type: protein-complex assay
Bcl-2-related protein A1 [4] = molecular target: T2, Bcl-2-related protein A1 (Mus musculus, UniProt Q07440); assay type: functional;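 note: confirmatory dose–response counterscreen on Bfl-1, used to check hits from a UBC13 polyubiquitin inhibitor campaign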
T2 sequence (Q07440 whole entry): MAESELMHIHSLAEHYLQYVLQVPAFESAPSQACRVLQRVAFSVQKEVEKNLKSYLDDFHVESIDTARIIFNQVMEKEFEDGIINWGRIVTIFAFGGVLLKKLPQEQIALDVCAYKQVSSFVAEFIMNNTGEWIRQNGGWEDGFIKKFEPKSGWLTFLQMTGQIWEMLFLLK

[5] = molecular target: T3, Ubiquitin-conjugating enzyme E2 N (Homo sapiens, UniProt P61088); assay type: functional
T3 sequence (P61088 whole entry): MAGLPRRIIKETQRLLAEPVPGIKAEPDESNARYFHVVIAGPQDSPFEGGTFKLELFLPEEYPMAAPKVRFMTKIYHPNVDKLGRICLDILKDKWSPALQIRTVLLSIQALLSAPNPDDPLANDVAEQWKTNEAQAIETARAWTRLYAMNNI

[6] = molecular target: T3, Ubiquitin-conjugating enzyme E2 N; assay type: functional; remark: listed apart in the source
[7] = molecular target: Glyceraldehyde-3-phosphate dehydrogenase (Homo sapiens, UniProt P04406)
Glyceraldehyde-3-phosphate dehydrogenase, sequence (P04406 whole entry): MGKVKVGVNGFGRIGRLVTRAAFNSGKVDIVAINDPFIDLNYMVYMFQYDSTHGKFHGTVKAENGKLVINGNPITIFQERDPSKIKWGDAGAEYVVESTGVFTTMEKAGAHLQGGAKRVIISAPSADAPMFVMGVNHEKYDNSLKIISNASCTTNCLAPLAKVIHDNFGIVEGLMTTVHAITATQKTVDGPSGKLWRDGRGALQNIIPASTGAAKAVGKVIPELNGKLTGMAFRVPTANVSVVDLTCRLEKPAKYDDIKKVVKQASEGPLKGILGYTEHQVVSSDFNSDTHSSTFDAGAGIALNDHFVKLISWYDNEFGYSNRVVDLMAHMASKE

Bcl-2-related protein A1 [8] = molecular target: T2, Bcl-2-related protein A1; experiment: Bfl-1 inhibitors blocking BH3 peptide binding, confirmation, biochemical, TR-FRET, mouse Bfl-1 (AID 621);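 note: TR-FRET binding of GST-Bfl-1 to FITC-labelled Bid peptide via terbium antibody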
Bcl-2-related protein A1 [9] = molecular target: T2, Bcl-2-related protein A1; experiment: Bfl-1 binding inhibitors, SAR follow-up, biochemical, fluorescence polarization (AID 1070)
[10] = Luminescence Cell-Based Dose Response to Identify Activators of 5'UTR Stem-Loop Driven Prion Protein mRNA Translation in H4-C Neuroglioblastoma Cells. [Related pubchem assays: 1829 (Project Summary), 1814 (Primary HTS)]; assay type: functional
[11] = Luminescence Cell-Based Dose Response HTS to Identify Activators of Luciferase Translation or Activity in H4 […] Cells. [Related pubchem assays: 1829 (Project Summary), 1814 (Primary HTS)]; assay type: functional
[12] = Luminescence Cell-Based Dose Response to Identify Activators of Luciferase Translation or Activity in H4-C Neuroglioblastoma Cells. [Related pubchem assays: 1829 (Project Summary), 1814 (Primary HTS)]; assay type: functional
[13] = Luminescence Cell-Based Dose Confirmation to Identify Activators of 5'UTR Stem-Loop Driven Alpha-Synuclein mRNA Translation in H4 Neuroglioblastoma Cells. [Related pubchem assays: 1829 (Project Summary), 1814 (Primary HTS)]; assay type: functional
Protein Tat = molecular target: T4, Protein Tat (Human immunodeficiency virus type 1 group M subtype B (isolate HXB2)(HIV-1), UniProt P04608); assay type: functional;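 note: tat binding to TAR RNA read out by fluorescence polarization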
T4 sequence (P04608 whole entry): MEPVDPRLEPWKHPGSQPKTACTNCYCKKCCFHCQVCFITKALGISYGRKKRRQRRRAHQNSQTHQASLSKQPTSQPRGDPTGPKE

[14] = Vero cell cytotoxicity, dose response, cytotoxicity control for Vif-APOBEC3G degradation inhibitor project, Vero cells (AID 1117358); assay type: functional; details: Human immunodeficiency virus 1, Vero
H4 = experiment: Luminescence Cell-Based Dose Response HTS to Identify Activators of 5'UTR Stem-Loop Driven Prion Protein mRNA Translation in H4 Neuroglioblastoma Cells. [Related pubchem assays: 1829 (Project Summary), 1814 (Primary HTS)]; assay type: functional; details: Homo sapiens
[15] = microbe, parasite or virus in culture; assay type: functional; details: Mycobacterium tuberculosis
H9c2 = experiment: cells; assay type: functional, cell-based; details: Rattus norvegicus, H9c2, Myocardium;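 note: confirmatory concentration-response retest of ultra-high-throughput screening hits for modulation of myocardial damage; cell death induced by hydrogen peroxide oxidative stress; compound pretreatment for 60 min then peroxide exposure for 2 h; potency is for protecting the cells against peroxide damage rather than for killing them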
[16] = P. falciparum 3D7-ScDHODH growth inhibitors, dose response, SYBR Green, dry powder samples (AID 1159570); assay type: functional, cell-based;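 note: parasite growth measured after 72 hours of compound exposure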
[17] = HepG2 cell cytotoxicity, dose response, cytotoxicity control, plate reader, dry powder samples (AID 1159569); assay type: functional, cell-based;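 note: inhibitor potency with signal falling toward the positive control level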
[18] = P. falciparum Dd2 growth inhibitors, dose response, SYBR Green, cherry-picked samples (AID 1159567); assay type: functional, cell-based
[19] = P. falciparum Dd2 growth inhibitors, dose response, SYBR Green, dry powder samples (AID 1159566); assay type: functional, cell-based;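 note: potency for growth inhibition with lower SYBR green DNA signal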
[20] = P. falciparum ATP4 D1247Y mutant growth inhibitors, dose response, NITD609-resistant line, SYBR Green, dry powder (AID 1159571); assay type: functional, cell-based;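 note: parasites synchronized at ring stage by sorbitol before testing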
[21] = THP-1 cell cytotoxicity, dose response, cytotoxicity control for Vif-APOBEC3G degradation inhibitor project, THP-1 cells (AID 1117359); assay type: functional; details: Human immunodeficiency virus 1, THP-1
[22] = Luminescence Cell-Based Dose Confirmation HTS to Identify Activators of 5'UTR Stem-Loop Driven Alpha-Synuclein mRNA Translation in H4 Neuroglioblastoma Cells. [Related pubchem assays: 1829 (Project Summary), 1814 (Primary HTS)]; assay type: functional
[23] = molecular target: T5, Replicative DNA helicase DnaB (Mycobacterium tuberculosis, UniProt P9WMR3); experiment: DnaB intein splicing inhibitors, dose response, biochemical, cell-free fluorescence (AID 449749); assay type: functional
T5 sequence (P9WMR3 whole entry): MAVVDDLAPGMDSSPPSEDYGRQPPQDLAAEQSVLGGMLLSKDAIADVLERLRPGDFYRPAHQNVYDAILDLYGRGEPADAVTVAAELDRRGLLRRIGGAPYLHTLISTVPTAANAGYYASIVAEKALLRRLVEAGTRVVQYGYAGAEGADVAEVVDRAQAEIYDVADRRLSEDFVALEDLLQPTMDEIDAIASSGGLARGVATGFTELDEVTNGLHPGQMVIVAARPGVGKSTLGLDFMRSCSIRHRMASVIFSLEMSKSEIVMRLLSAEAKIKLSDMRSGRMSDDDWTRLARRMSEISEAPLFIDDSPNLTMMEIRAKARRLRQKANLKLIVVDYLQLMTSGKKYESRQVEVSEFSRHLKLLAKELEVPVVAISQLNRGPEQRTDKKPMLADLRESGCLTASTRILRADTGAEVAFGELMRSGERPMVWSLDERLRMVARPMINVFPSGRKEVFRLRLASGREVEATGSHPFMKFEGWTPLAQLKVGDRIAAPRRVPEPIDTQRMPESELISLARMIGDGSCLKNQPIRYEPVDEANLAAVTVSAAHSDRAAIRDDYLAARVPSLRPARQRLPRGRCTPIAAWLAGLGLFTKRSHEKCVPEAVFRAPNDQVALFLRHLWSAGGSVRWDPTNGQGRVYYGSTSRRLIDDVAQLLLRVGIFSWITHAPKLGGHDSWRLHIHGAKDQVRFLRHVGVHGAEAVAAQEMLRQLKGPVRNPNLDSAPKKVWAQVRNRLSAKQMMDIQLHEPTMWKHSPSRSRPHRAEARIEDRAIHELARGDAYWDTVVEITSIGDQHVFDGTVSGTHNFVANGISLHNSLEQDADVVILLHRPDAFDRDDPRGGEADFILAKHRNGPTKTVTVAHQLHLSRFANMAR

Protein RecA = molecular target: T6, Protein RecA (Mycobacterium tuberculosis, UniProt P9WHJ3); experiment: Fluorescence Cell-Free Homogeneous Dose Retest to Identify Inhibitors of RecA-Intein Splicing Activity. [Related pubchem assays (depositor defined):AID2097, AID2223, AID489010, AID492950]; assay type: functional
T6 sequence (P9WHJ3 whole entry): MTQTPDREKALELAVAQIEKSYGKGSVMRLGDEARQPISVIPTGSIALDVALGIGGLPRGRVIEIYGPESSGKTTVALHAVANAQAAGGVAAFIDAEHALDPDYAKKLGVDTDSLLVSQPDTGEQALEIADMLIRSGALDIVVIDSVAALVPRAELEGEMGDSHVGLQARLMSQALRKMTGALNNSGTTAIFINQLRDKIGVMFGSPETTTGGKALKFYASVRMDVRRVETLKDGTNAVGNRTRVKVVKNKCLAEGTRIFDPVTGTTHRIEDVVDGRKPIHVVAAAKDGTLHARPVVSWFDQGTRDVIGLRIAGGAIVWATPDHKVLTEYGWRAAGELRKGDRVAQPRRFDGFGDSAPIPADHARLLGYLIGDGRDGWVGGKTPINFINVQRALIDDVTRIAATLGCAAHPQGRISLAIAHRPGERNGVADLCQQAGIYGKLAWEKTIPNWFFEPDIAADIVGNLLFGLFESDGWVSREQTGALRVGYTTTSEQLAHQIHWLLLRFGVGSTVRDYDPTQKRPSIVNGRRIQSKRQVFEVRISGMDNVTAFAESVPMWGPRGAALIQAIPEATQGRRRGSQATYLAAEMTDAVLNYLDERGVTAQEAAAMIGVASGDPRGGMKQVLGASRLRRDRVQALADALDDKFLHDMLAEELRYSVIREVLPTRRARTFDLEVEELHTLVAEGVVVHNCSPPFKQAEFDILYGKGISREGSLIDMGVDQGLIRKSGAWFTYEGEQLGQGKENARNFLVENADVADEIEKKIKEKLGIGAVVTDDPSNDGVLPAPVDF

Cc1ccc(-c2cc(C(F)(F)F)c(C#N)c(O)n2)cc1
IC50 [1]: 32.6 µM (active)

CCCCn1c(=O)[nH]c(=O)c2c1nc(-c1ccc(-c3ccc(F)cc3)o1)n2C
IC50 (SUMO-activating enzyme [2]): > 100 µM (inactive) | IC50 (SUMO-activating enzyme [3]): > 100 µM (inactive)

Cc1cccc(C)c1NC(=O)Cn1c(=O)n(CCCC(=O)NC2CCN(Cc3ccccc3)CC2)c(=O)c2ccccc21
IC50 (Bcl-2-related protein A1 [4]): > 20 µM (inactive) | IC50 [5]: 6.42 µM (active) | IC50 [6]: 4.06 µM (active)

CS(=O)(=O)N(CC(O)Cn1c2ccccc2c2ccccc21)c1ccccc1 (configuration not stated)
IC50 [1]: 33 µM (active)

O=C1c2cccc3cccc(c23)N1Cc1cccc(F)c1
IC50 (Bcl-2-related protein A1 [4]): > 20 µM (inactive) | IC50 [5]: 16.6 µM (active) | IC50 [6]: 6.16 µM (active)

Cc1ccc(Cl)c(N2C(=O)C(Cl)=C(N3CCN(C)CC3)C2=O)c1Cl
IC50 [7]: > 100 µM (not active) | IC50 (Bcl-2-related protein A1 [8]): 11.1 µM (active) | IC50 (Bcl-2-related protein A1 [9]): 23.9 µM (active)

CCOC(=O)c1s/c(=N\C(=O)c2ccc(C)c(C)c2)n(C)c1C
EC50 [10]: 0.543 µM (active) | EC50 [11]: < 0.1 µM (active) | EC50 [12]: 0.601 µM (active) | EC50 [13]: 0.718 µM (active)

O=C(Nc1ccccc1C(=O)O)c1ccc(NC(=O)c2ccc(Br)o2)cc1
IC50 [1]: 35.4 µM (active)

CCC(NC(=O)Nc1ccc(O)cc1)(C(F)(F)F)C(F)(F)F
IC50 (Protein Tat): 40.2 µM (inconclusive)

O=C(NCc1ccccc1)/C(=C/c1ccc(OC(F)F)cc1)c1ccccc1
CC50 [14]: 34.5 µM (active)

CCCCOc1[nH]cnc2c3cc(OC)ccc3nc1-2
EC50 [10]: 0.274 µM (active) | EC50 (H4): < 0.1 µM (active) | EC50 [12]: 0.403 µM (active) | EC50 [13]: 0.239 µM (active)

c1ccc(CN2CCN(CCCNc3ccc4nnc(-c5ccccc5)n4n3)CC2)cc1
CC50 [15]: 35.6 µM (active) | IC50 (H9c2): > 79 µM (inactive) | IC50 (Protein Tat): > 100 µM (active)

COc1ccc2c3c(n(C)c2c1)[C@H](CO)N(CC1CC1)CC31CN(C(=O)c2ccc3c(c2)OCO3)C1
AC50 [16]: 1.24 µM (active) | AC50 [17]: > 100 µM (inactive) | AC50 [18]: 1.85 µM (active) | AC50 [19]: 1.26 µM (active) | AC50 [20]: 1.28 µM (active)

Cc1ccc(-c2cc(-c3ccc4c(c3)OCO4)c(C#N)c(N)n2)o1
IC50 (Protein Tat): 30.5 µM (inconclusive) | CC50 [21]: 24.7 µM (active)

Cc1ccc(Nc2[nH]cnc3ncnc2-3)cc1Cl
EC50 [10]: 0.745 µM (active) | EC50 [22]: < 0.1 µM (active) | EC50 [11]: 0.268 µM (inconclusive) | EC50 (H4): > 120 µM (not active) | EC50 [12]: > 12 µM (not active) | EC50 [13]: 0.604 µM (active)

COc1cccc(N2C(=O)C(Cl)=C(N3CCN(CCOCCO)CC3)C2=O)c1
IC50 [7]: > 100 µM (not active) | IC50 (Bcl-2-related protein A1 [8]): 9.11 µM (active) | IC50 (Bcl-2-related protein A1 [9]): 8.85 µM (active)

Cc1nn(-c2ccc(Cl)cc2)c(O)c1C(c1cccc(O)c1)c1c(C)[nH]n(-c2ccc(Cl)cc2)c1=O (configuration not stated)
IC50 (SUMO-activating enzyme [2]): 4.08 µM (active) | IC50 (SUMO-activating enzyme [3]): 47.8 µM (active) | AC50 [23]: 1.36 µM (active) | EC50 (Protein RecA): 0.897 µM (active)
